Test results from US5104859A, “Continuous administration of adenosine to reduce pulmonary vascular resistance” (priority 1990, dated 1992).
Where “and” joins values, the source holds several entries; their conditions need not be identical. Equal entries are not always repeated. Entries after “also recorded” stand apart in the source; their conditions may differ.

Key:
[1] = test system: systemic arterial blood pressure and central hemodynamics; test: Controlled hypotension during anesthesia: central hemodynamics (dipyridamole-pretreated cerebral aneurysm surgery patients); details: for tachyphylaxis: constant infusion rate during hypotension
Method: One hour before the operation the patients were premedicated orally with diazepam (10-20 mg.) Atropine (0.5 mg) and droperidol (0.1 mg. per kg.) were given intravenously before induction of anesthesia. Induction was started with thiopental (5 mg. per kg) followed by phenoperidine (1-2 mg), a synthetic opiate with pharmacodymanics resembling fentanyl but with a longer duration of action and 1/10 of its analgesic potency.
Pancuronium bromide (0.1 mg per kg) was given to facilitate endotracheal intubation. Anesthesia was maintained by supplementary doses of phenoperidine and droperidol, as required. […] Phenoperidine was supplemented regularly to prevent the blood pressure from exceeding the preanesthetic level (approx. 1 mg/30-60 min). Controlled hyperventilation was employed with a humidified gas mixture of 60% N2 O in oxygen to maintain PaCO2 values at approximately 30 mmHg (±1.5/SEM). Mannitol (1-1.5 g. per kg) was given routinely at the start of the operation (e.g., 1-2 hours prior to the controlled hypotension). The patients were operated on in the horizontal supine position.
A 1.2-mm plastic cannula was introduced into the left radial artery to monitor systemic arterial blood pressure (MABP) and collect arterial blood. A balloon-tipped, flow-directed, quadruple lumen Swan-Ganz catheter (Model 93A-831-7.5 F, VIP) was inserted percutaneously via the left basilic vein, and its correct position in the pulmonary artery was determined by pressure tracings. The catheter was used for the monitoring of mean right atrial pressure (RAP), mean pulmonary artery pressure (PAP), and mean pulmonary capillary wedge pressure (PCWP) for the determination of cardiac output and collection of mixed venous blood and for the infusion of adenosine. Another plastic cannula was introduced percutaneously, in a retrograde direction, into the right jugular bulb for the collection of blood. The correct position was verified by x-ray.
The ECG was monitored with a standard chest (V5) lead. Heart rate was determined from the R-R interval. Blood pressures were measured by transducers placed at the midthoracic level. Cardiac output (QT) was determined in triplicate according to the thermodilution technique with a cardiac output computer (Edwards Lab, model 9510). Isotonic glucose, 10 ml at 1° C., was used as a thermal indicator. The ECG, heart rate, blood pressures, and thermodilution curves were recorded on a Grass® polygraph.
Measurements and blood samplings were performed immediately before hypotension, as late as possible during hypotension (1-5 min before terminating the infusion) and approximately 30 min after the hypotensive period.
Dipyridamole (5 mg. per ml) was infused iv (0.3-0.4 mg. per kg. over a period of 5-10 min) approximately 20 minutes prior to the induction of controlled hypotension. […] (See Pedersen, J. Chromatogr., 162: 98-103 (1979).
The infusion was started at a rate of 0.01 mg. per kg. per minute, which was doubled at 15 second intervals until the desired MABP level of 40-50 mmHg was reached. […] Serum creatinine was determined before and on two consecutive days after operation. The standard ECG was recorded the day before and the day after operation.
Systemic vascular resistance (SVR) was derived from the formula [formula] and pulmonary vascular resistance (PVR) from the formula [formula]
The statistical significance (control 1 vs. adenosine and control 1 vs. control 2) was determined by Student's t test for paired data. A P value of <0.05 was regarded as significant.

cardiovascular system = details: bolus about 37.5 to 450 micrograms/kg; cited from earlier work
[2] = Plasma half-life of adenosine; format: in vivo
[3] = test system: pulmonary vascular resistance; details: systemic vasodilator doses
[4] = human, in vivo
[5] = test system: pulmonary vascular resistance
[6] = test system: oxygen consumption and lactate; test: Oxygen contents, oxygen consumption and lactate during controlled hypotension; format: in vivo, human
Method: The correct position was verified by x-ray.
The hemoglobin concentration was determined spectrophotometrically. […] Scand., 120: 171-76 (1984). […] (London), 313: 351-67 (1981). […] Arterial levels of dipyridamole were determined by HPLC. J. Chromatogr., 162: 98-103 (1979). […] Scand. Clin. Lab. Invest., 27:15-19 (1971).
The mean hypotensive period was 32±8 min.
Oxygen content was derived from the formula SO2*× 1.34×Hb+PO2× […]. Foex et al., Br. J. Anesth., 42: 803-4 (1970). The arteriovenous oxygen content difference (AVDO2) was determined and used to calculate total oxygen consumption (VO2) as the product of AVDO2 and QT. *SO2 =Oxygen saturation.
Oxygen contents, consumptions and lactate concentrations in nine patients before, during and 30 minutes after controlled hypotension are summarized in Table III.

[7] = Control 2, 30 min after hypotension

Nc1ncnc2c1ncn2[C@@H]1O[C@H](CO)[C@@H](O)[C@H]1O [adenosine]
PVR during adenosine [1]: unchanged | RAP, PAP and PCWP [1]: not influenced | decrease in MABP [1]: 43±3% | decrease in SVR [1]: 61±3% | increase in cardiac output [1]: 44±9% | increase in heart rate [1]: 9±2 beats per minute | Cardiac output [1, 7]: 5.17 ± 0.54 liters per min. | Diastolic blood pressure [1, 7]: 71 ± 3 mmHg | Mean arterial blood pressure [1, 7]: 91 ± 4 mmHg | Pulmonary artery pressure [1, 7]: 14.7 ± 1.4 mmHg | Pulmonary capillary wedge pressure [1, 7]: 9.9 ± 1.4 mmHg | Pulmonary vascular resistance [1, 7]: 0.97 ± 0.15 mmHg per liter min. | Right atrial pressure [1, 7]: 5.6 ± 0.8 mmHg | Systolic blood pressure [1, 7]: 130 ± 7 mmHg | heart rate [1, 7]: 58 ± 3 beats per min. | rebound hypertension ([1]; after discontinuation of infusion): did not occur | tachyphylaxis [1]: without evidence of tachyphylaxis | tachyphylaxis ([1]; listed as Adenosine): absence of tachyphylaxis | SVR during adenosine ([1]; decreased from 16.7): 6.2 mmHg per liter a minute | Cardiac output ([1]; during adenosine): 6.86 ± 0.71 liters per min. | Diastolic blood pressure ([1]; during adenosine): 34 ± 2 mmHg | Mean arterial blood pressure ([1]; during adenosine): 46 ± 2 mmHg and 46 mmHg | Pulmonary artery pressure ([1]; during adenosine): 16.5 ± 0.9 mmHg | Pulmonary capillary wedge pressure ([1]; during adenosine): 11.0 ± 1.0 mmHg | Pulmonary vascular resistance ([1]; during adenosine): 0.82 ± 0.08 mmHg per liter min. | Right atrial pressure ([1]; during adenosine): 7.2 ± 0.7 mmHg | Systolic blood pressure ([1]; during adenosine): 78 ± 6 mmHg | heart rate ([1]; during adenosine): 63 ± 3 beats per min. | cardiac output during adenosine ([1]; increased from 4.9): 6.9 1 per minute | MABP increase after hypotension vs control period ([1]; persistently higher after hypotension): approximately 10 mmHg | time to decrease in MABP ([1]; within): 1 to 2 min | time to restoration of MABP after discontinuation ([1]; within): 1 to 5 min | vasodilating action of injectable bolus (cardiovascular system): little detectable vasodilating action | half-life [2]: < 10 s | normal pulmonary vascular resistance [3]: negligible or at most, minor effect | symptoms in awake patient at higher doses [4]: facial flushing, neck and chest oppression, palpitation and increased rate of respiration | pulmonary vascular resistance in induced pulmonary hypertension ([5]; intravenous, hypoxic ventilation during anesthesia): marked reduction | systemic vasodilator effects, cardiac output, arterial oxygen at doses lowering pulmonary resistance ([5]; pig, in vivo): commonly do not result in detectable vasodilator effects or effects on cardiac output or arterial oxygen function | decrease in AVDO2 [6]: 37±5% | decrease in cerebral AVDO2 [6]: 37±13% | decrease of VO2 [6]: 13±4% | Arterial lactate concentration (La) [6, 7]: 1.82 ± 0.20 mmol per liter | Arterial oxygen tension (PaO2) [6, 7]: 93.0 ± 5.2 mmHg | Jugular arteriovenous lactate content difference (AVDj La) [6, 7]: -0.06 ± 0.04 mmol per liter | Jugular arteriovenous oxygen content difference (AVDj O2) [6, 7]: 74.9 ± 7.7 ml. per liter | Total arteriovenous oxygen content difference (AVDT O2) [6, 7]: 46.8 ± 3.2 ml per liter | Total oxygen consumption (VT O2) [6, 7]: 235 ± 16 ml per mm. | arterial lactate concentration ([6]; during / after hypotension): not affected; also recorded: minor increase | Arterial lactate concentration (La) ([6]; during adenosine): 1.73 ± 0.20 mmol per liter | Arterial oxygen tension (PaO2) ([6]; during adenosine): 97.5 ± 9.0 mmHg | Jugular arteriovenous lactate content difference (AVDj La) ([6]; during adenosine): -0.05 ± 0.05 mmol per liter | Jugular arteriovenous oxygen content difference (AVDj O2) ([6]; during adenosine): 58.1 ± 14.1 ml. per liter | Total arteriovenous oxygen content difference (AVDT O2) ([6]; during adenosine): 29.3 ± 2.5 ml per liter | Total oxygen consumption (VT O2) ([6]; during adenosine): 193 ± 16 ml per mm. | arterial oxygen tension ([6]; during hypotension): remained unchanged | arterio-jugular lactate content difference ([6]; during hypotension): unaltered
